Biological target: Tyrosine-protein kinase JAK2 (Homo sapiens, UniProt O60674)
Assay: JAK2 Z-Lyte Biochemical Assay
Description: The JAK2 Z-Lyte biochemical assay was performed according to manufacturer's instructions (Life Technologies).

Chain of Tyrosine-protein kinase JAK2 (O60674 whole entry): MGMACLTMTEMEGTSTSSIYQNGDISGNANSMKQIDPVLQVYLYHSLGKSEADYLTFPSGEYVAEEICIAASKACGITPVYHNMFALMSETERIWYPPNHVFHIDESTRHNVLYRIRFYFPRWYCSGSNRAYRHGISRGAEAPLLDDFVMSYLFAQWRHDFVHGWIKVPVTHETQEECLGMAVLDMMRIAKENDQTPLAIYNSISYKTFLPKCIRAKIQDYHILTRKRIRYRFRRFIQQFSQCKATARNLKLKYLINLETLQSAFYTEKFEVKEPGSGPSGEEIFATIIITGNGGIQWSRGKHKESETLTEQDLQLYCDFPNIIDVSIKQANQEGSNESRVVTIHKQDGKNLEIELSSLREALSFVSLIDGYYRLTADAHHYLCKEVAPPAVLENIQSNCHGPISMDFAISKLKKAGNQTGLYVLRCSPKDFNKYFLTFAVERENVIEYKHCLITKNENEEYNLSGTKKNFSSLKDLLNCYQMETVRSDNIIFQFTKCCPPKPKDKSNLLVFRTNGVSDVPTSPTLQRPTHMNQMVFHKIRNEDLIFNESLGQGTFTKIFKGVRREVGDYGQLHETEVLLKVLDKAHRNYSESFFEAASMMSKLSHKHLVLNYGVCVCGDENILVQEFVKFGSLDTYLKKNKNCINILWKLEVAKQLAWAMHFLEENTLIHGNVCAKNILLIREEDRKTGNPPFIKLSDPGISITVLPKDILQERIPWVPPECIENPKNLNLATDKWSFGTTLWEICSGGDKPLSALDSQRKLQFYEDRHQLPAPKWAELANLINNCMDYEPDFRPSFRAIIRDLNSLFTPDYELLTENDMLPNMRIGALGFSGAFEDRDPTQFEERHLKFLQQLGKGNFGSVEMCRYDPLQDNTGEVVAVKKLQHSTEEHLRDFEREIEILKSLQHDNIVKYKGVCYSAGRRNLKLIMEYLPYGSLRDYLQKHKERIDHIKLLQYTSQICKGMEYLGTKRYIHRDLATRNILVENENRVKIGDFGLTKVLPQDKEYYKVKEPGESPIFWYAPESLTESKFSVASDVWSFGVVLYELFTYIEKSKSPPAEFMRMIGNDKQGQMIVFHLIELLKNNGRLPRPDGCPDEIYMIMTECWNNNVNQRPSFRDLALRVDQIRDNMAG

IC50: 4.07 µM
Compound: CC(=O)Nc1cc(Oc2ccc3nc(Nc4cccc(C(C)(C)C#N)c4)n4c3c2CCC4)ccn1 [US20240101559, Compound I-2]
